Measured values from patent US20190224222A1, “METHOD OF INHIBITING QUORUM SENSING USING D-GALACTOSE” (Seoul National University R&DB Foundation, priority 2014, published 2019).

Key:
S. mutans (Sm) biofilm = assay: S. mutans biofilm formation, crystal violet staining; type: cell-based, Streptococcus mutans (ATCC 25175)
Method: (§1) 2 mL (2×10^7/ml) of the culture broth of a representative cariogenic bacterium S. mutans (Sm) and 2 mL (2×10^7/ml) of the culture broth of one of normal oral flora, S. oxalis (SO) were added to a saliva-coated glass slip (round, 12 mm radius), respectively and cultured with 0 mM or 2 mM of D-galactose to form biofilms. The formed biofilms were stained with crystal violet in the same manner as in Examples 3-6 to test biofilm formation according to the presence of D-galactose. Further, the biofilms were stained with fluorescent materials using the live/dead-BacLight viability kit (Invitrogen, Grand Island, N.Y., USA), followed by analysis. For comparison, 2 μM of the furanone compound was used instead of D-galactose to perform the same test.

[1] = test system: T. forsythia (Tf) biofilm; assay: Tf biofilm formation induced by Fn secretory material, transwell, crystal violet; type: cell-based; settings: Fn upper / Tf lower chamber, Fur 2 μM, 48-72 h, Fn/Tf control 0.55, Tf alone 0.17
Method: (§2) In order to examine efficacies of quorum sensing inhibitor (QSI) candidates on biofilm formation of periodontopathogenic bacteria which is induced by a secretory material of F. nucleatum (Fn), a test was performed using a transwell system. AI-2 naturally secreted by Fn is contained in the secretory material of Fn. Therefore, in the test using the transwell system, Fn AI-2 was not directly added to bacteria, but Fn was put in an upper chamber and Pg or Tf was put in a lower chamber. Biofilms cultured and formed in the presence or absence of QSI candidates were stained with crystal violet, followed by analysis. These conditions are to evaluate whether Pg or Tf biofilm formation is influenced by not a purified AI-2 but an AI-2-containing secretory material naturally secreted by Fn, and whether QSI candidates such as D-gal is able to inhibit the biofilm formation if the biofilm is then formed.
(§3) More specifically, the transwell system (24-well) has an upper chamber and a lower chamber which are separated from each other by a membrane of 0.4 μm. 500 μl of F. nucelatum (Fn) culture broth (the number of bacteria: 2×10^7 CFU/ml) was cultured in the upper chamber. A glass slip was placed in the lower chamber, and then the same number of P. gingivalis(Pg) or T. forsythia(Tf) was inoculated in 1 ml of medium and cultured for 48-72 hours. The same QSI candidates were added to the upper and lower chambers. As the QSI candidates, 2 mM of sugar (D-rib or D-gal) was used and 2 μM of the furanone compound [(5Z)-4-bromo-5-(bromomethylene)-2(5H)-furanone] was used. In order to examine whether biofilm formation of the bacteria in the lower chamber is influenced by Fn secretory material and QSI candidates, the biofilms formed on the glass slip were stained with crystal violet, and then quantified (see Examples 3 to 5).

[2] = test system: F. nucleatum (Fn) biofilm; assay: Fn biofilm formation induced by Fn AI-2, crystal violet staining; type: cell-based, F. nucleatum (ATCC 25586); settings: Fn + Fn AI-2 10% (v/v), 48-72 h, Fn/AI-2 control 1.5, Fn 0.46
Method: To test biofilm formation by Fn, a Fn culture broth (2 ml; a negative control group, the number of bacteria: 2×10^7/ml), a mixture of Fn culture broth (2 ml) and F. nucleatum AI-2 (purified from F. nucleatum secretary material of F. nucleatum culture broth using a C18 Sep-Pak reverse-phase column (Waters Co., Milford, Mass.); hereinafter, referred to as ‘Fn AI-2’; 10% (v/v) with respect to the total volume of the mixture with Fn culture broth), or a mixture of Fn culture broth (2 ml) and Fn AI-2 (10% (v/v) with respect to the total volume of the mixture with Fn culture broth) and each of QSI candidates was added to a 24-well plate with a glass slip (round, 12 mm radius), and cultured under anaerobic conditions for 48-72 hours. As the QSI candidates, sugars (D-rib, D-gal, D-Glu, D-Man, or D-ara) were used in an amount of 2 mM, and the furanone compound [(5Z)-4-bromo-5-(bromomethylene)-2(5H)-furanone] was used in an amount of 2 μM.
(§4) Biofilms formed on the cover slips were stained with 10% crystal violet [Tris(4-(dimethylamino)phenyl)methylium chloride] for 10 minutes, washed three times with PBS, and destained with 1 ml of acetone-alcohol (20:80, vol/vol). The optical density at 590 nm of the destaining solution containing crystal violet was measured using a microplate reader (a Wallac Victor3 microtiter, PerkinElmer Life Sciences, Waltham, Mass.). The smaller optical density (OD590) measured at 590 nm represents more inhibition of biofilm formation, that is, higher quorum sensing inhibitory effect of the used QSI candidate.

[3] = test system: T. forsythia (Tf) biofilm; assay: Tf biofilm formation induced by Fn AI-2, crystal violet staining; type: cell-based, T. forsythia (ATCC 43037); settings: Tf + Fn AI-2 10% (v/v), Fur 2 μM, 48-72 h; Tf/AI-2 control 0.48, Tf 0.32
Method: To test biofilm formation by Tf, a test was performed in the same manner as in Example 3. That is, a Tf culture broth (2 ml; a negative control group, the number of bacteria: 2×10^8/ml), a mixture of Tf culture broth (2 ml) and Fn AI-2 (10% (v/v) with respect to the total volume of the mixture with Tf culture broth), or a mixture of Tf culture broth (2 ml) and Fn AI-2 (10% (v/v) with respect to the total volume of the mixture with Tf culture broth) and D-gal (2 mM) was added to a 24-well plate with a glass slip (round, 12 mm radius), and cultured under anaerobic conditions for 48-72 hours. For comparison, 2 mM of D-rib or 2 μM of the furanone compound [(5Z)-4-bromo-5-(bromomethylene)-2(5H)-furanone] was used instead of D-gal to perform the same test.
as §4

[4] = test system: P. gingivalis (Pg) biofilm; assay: Pg biofilm formation induced by Fn AI-2, crystal violet staining; type: cell-based, P. gingivalis (ATCC 33277); settings: Pg + Fn AI-2 10% (v/v), Fur 2 μM, 48-72 h; Pg/AI-2 control 2.00, Pg 0.66
Method: To test biofilm formation by Pg, a test was performed in the same manner as in Example 3. That is, a Pg culture broth (2 ml; negative control group, the number of bacteria: 4×10^8/ml), a mixture of Pg culture broth (2 ml) and Fn AI-2 (10% (v/v) with respect to the total volume of the mixture with Pg culture broth), or a mixture of Pg culture broth (2 ml) and Fn AI-2 (10% (v/v) with respect to the total volume of the mixture with Fn culture broth) and D-gal (2 mM) was added to a 24-well plate with a glass slip (round, 12 mm radius), and cultured under anaerobic conditions for 48˜72 hours. For comparison, 2 μM of the furanone compound [(5Z)-4-bromo-5-(bromomethylene)-2(5H)-furanone] was used instead of D-gal (2 mM) to perform the same test.
as §4

S. oxalis (So) biofilm = assay: S. oxalis biofilm formation, crystal violet staining; type: cell-based, Streptococcus oxalis (ATCC 9811); settings: So on saliva-coated glass slip, Fur 2 uM; So control 0.59
Method: as §1, with “The formed biofilms were stained with crystal violet in the same manner as in Examples 3-6 to test biofilm formation according to the presence of D-galactose.” left out

[5] = test system: P. gingivalis (Pg) biofilm; assay: Pg biofilm formation induced by Fn secretory material, transwell, crystal violet; type: cell-based; settings: Fn upper / Pg lower chamber, Fur 2 μM, 48-72 h, Fn/Pg control 0.57, Pg alone 0.30
Method: as §2, §3

[6] = sugar 2 mM, smaller OD = more inhibition of biofilm

SMILES: O=C1C=C(Br)/C(=C/Br)O1 [Fur, (5Z)-4-bromo-5-(bromomethylene)-2(5H)-furanone, reference compound]
- OD590 nm (S. mutans (Sm) biofilm; Sm on saliva-coated glass slip, Fur 2 μM, Sm control 0.48): 0.51
- inhibitory effect on Sm biofilm formation, in words (S. mutans (Sm) biofilm; crystal violet, D-gal 2 mM, furanone compound 2 μM): hardly exhibited the inhibitory effect
- OD590 [1]: 0.39
- OD590 nm ([2]; Fur 2 μM): 0.49
- OD590 nm [3]: 0.35
- OD590 nm [4]: 0.98
- OD590 (S. oxalis (So) biofilm): 0.64
- OD590 nm [5]: 0.30

SMILES: O=C[C@H](O)[C@@H](O)[C@H](O)[C@H](O)CO [D-glu, D-glucose]
- OD590 nm [2, 6]: 1.15

SMILES: O=C[C@@H](O)[C@@H](O)[C@H](O)[C@H](O)CO [D-man, D-mannose]
- OD590 nm [2, 6]: 1.16

SMILES: O=C[C@@H](O)[C@H](O)[C@H](O)CO [D-ara, D-arabinose]
- OD590 nm [2, 6]: 1.37
